Test results as given in patent publication US6492303B1, “Compositions for protecting a plant from a disease and using method thereof” (priority 1998, dated 2002).

Columns and labels:
[1] = test system: rice plant “Nihonbare”; test: Test 11: production of Sakuranetin and Momilactone-A in wounded rice blades treated with L-cysteine/D-glucose and comparative solutions; details: rice fifth blades, 25 μl test solution on 1 mm cuts, 60 hours at 25° C. under light
[2] = test system: various pathogenic bacteria of plants including Pyricularia oryzae; details: antibacterial activity; stated as known, no test described; cited from earlier work
[3] = test system: Tomato; details: 500 ml per stock sprayed on foliage, aboveground part 72 hours after spraying; Non-treating Section = 100
Procedure: (§1) Above plants in the age of 5-6 blades were employed for the test. […] The application for MG3 and M1 was executed in the form of spraying on the foliage by 500 ml per stock. The analysis of phytoalexins were carried out by sampling the aboveground part of plants 72 hours after the spraying, extracting the samples with acetone followed by chromatographic elution with ethyl acetate through a silica gel, and finally analyzing on an HPLC instrument.

[4] = test system: Beat; details: 500 ml per stock sprayed on foliage, aboveground part 72 hours after spraying; Non-treating Section = 100
Procedure: as §1

[5] = test system: Chinese cabbage; details: 500 ml per stock sprayed on foliage, aboveground part 72 hours after spraying; Non-treating Section = 100
Procedure: as §1

[6] = test system: rice plant “Nihonbare”; test: Test 1: production of Sakuranetin and Momilactone-A in wounded rice blades treated with DL-methionine/D-glucose solutions; assay type: in vivo; details: rice fifth blades, 25 μl test solution on 1 mm cuts, 60 hours at 25° C. under light; detected amount per cut
Procedure: The structural formula of Sakuranetin is shown in Formula 1, and of Momilactone-A in Formula 2. [drawing 1]
A control section was set up similarly except using 25 μl of distilled water only.
Unit: ng/spot (detected amount per cut)

[7] = test system: Eggplant; details: 500 ml per stock sprayed on foliage, aboveground part 72 hours after spraying; Non-treating Section = 100
Procedure: as §1

[8] = test system: Carrot; details: 500 ml per stock sprayed on foliage, aboveground part 72 hours after spraying; Non-treating Section = 100
Procedure: as §1

[9] = test system: Tobacco; details: 500 ml per stock sprayed on foliage, aboveground part 72 hours after spraying; Non-treating Section = 100
Procedure: as §1

[10] = test system: Soybean; details: 500 ml per stock sprayed on foliage, aboveground part 72 hours after spraying; Non-treating Section = 100
Procedure: as §1

[11] = test system: Podded pea; details: 500 ml per stock sprayed on foliage, aboveground part 72 hours after spraying; Non-treating Section = 100
Procedure: as §1

[12] = test system: Grape; details: 500 ml per stock sprayed on foliage, aboveground part 72 hours after spraying; Non-treating Section = 100
Procedure: as §1

[13] = test system: Potato; details: 500 ml per stock sprayed on foliage, aboveground part 72 hours after spraying; Non-treating Section = 100
Procedure: as §1

[14] = test system: rice blight (Pyricularia oryzae); assay type: in vivo; details: rice “Nihonbare”, 100 ml sprayed on foliage 24 hours before inoculation, measured ten days after inoculation; Control Section 25.1

Structure (SMILES): N.N.O=S(=O)(O)O [Section AS1, Ammonium sulfate]
- Amount of Momilactone-A [1]: not detected
- Amount of Sakuranetin [1]: not detected

Structure (SMILES): O=C[C@H](O)[C@@H](O)[C@H](O)[C@H](O)CO [Section GL1, D-glucose]
- Amount of Momilactone-A [1]: not detected
- Amount of Sakuranetin [1]: not detected

Structure (SMILES): COc1cc(O)c2c(c1)O[C@H](c1ccc(O)cc1)CC2=O [Sakuranetin]
- ED50 [2]: 15 ppm

Structure (SMILES): C=C[C@]1(C)CC[C@@H]2C(=C[C@H]3OC(=O)[C@@]4(C)C(=O)CC[C@@]2(C)[C@@H]34)C1 [Momilactone-A]
- ED50 [2]: 15 ppm

Structure (SMILES): N[C@@H](CS)C(=O)O [Section C1, L-cysteine]
- Amount of Momilactone-A [1]: 38.99 ng/spot
- Amount of Sakuranetin [1]: 79.10 ng/spot

Structure (SMILES): CSCCC(N)C(=O)O (racemic) [Section M1, DL-methionine]
- Ricitin (Tomato), produced amount per unit weight [3]: 10,039
- Vetablugarin (Beat), produced amount per unit weight [4]: 1,810
- Blacinin (Chinese cabbage), produced amount per unit weight [5]: 18,600
- Amount of Momilactone-A [6]: 55.89 ng/spot
- Amount of Sakuranetin [6]: 122.56 ng/spot
- Lubimin (Eggplant), produced amount per unit weight [7]: 23,070
- 6-Methoxymelain (Carrot), produced amount per unit weight [8]: 3,222
- Capsydiol (Tobacco), produced amount per unit weight [9]: 1,907
- Griceorin (Soybean), produced amount per unit weight [10]: 1,910
- Pisatin (Podded pea), produced amount per unit weight [11]: 4,522
- α-Vinipherin (Grape), produced amount per unit weight [12]: 962
- Ricitin (Potato), produced amount per unit weight [13]: 590
- Necrosis Ratio = (necrosis area + decay area)/total area [14]: 7.8%

Structure (SMILES): N[C@@H](CCC(=O)N[C@@H](CS)C(=O)NCC(=O)O)C(=O)O [Section GT1, Glutathione of reduced type]
- Amount of Momilactone-A [1]: not detected
- Amount of Sakuranetin [1]: not detected
